Key:
conscious SHR = assay: Acute IV bolus administration, MAP and HR in conscious SHR; type: in vivo, rat
Protocol: Wistar and SHR rats were anesthetized with 2.5% tribromoethanol, intraperitoneally (1 mL/100 g). For femoral artery cannulation, cannulas made by connecting 15 cm polyethylene PESO to 4 cm of PE10 polyethylene were used, filled with saline solution (NaCl 0.9%) and heparin (100 IU/0.1 mL). After the animal was placed supine on the operating table, a trichotomy of the right inguinal region of the animal was performed. A small skin incision was made; the femoral neurovascular bundle was located and the femoral artery isolated. The cannula was introduced into the abdominal aorta through the femoral artery and was used for obtaining the cardiovascular parameters. A second cannula made by connecting 15 cm polyethylene PESO to 2 cm of PE10 polyethylene, filled with saline (0.9% NaCl), was inserted into the femoral vein for administration of peptides. After cannulation, the catheters were secured and exteriorized subcutaneously into the back of the animal, in the cervical region. The incisions were sutured and the animals placed in individual cages, with free access to water and feed. The values of mean arterial pressure (MAP) and heart rate (HR) were calculated from PA pulses and recorded by the data acquisition system (BIOPAC System, Model MP150). The pulsatile arterial pressure (PAP) was recorded by a signal sent to a transducer connected to the cannula inserted into the abdominal aorta via the femoral artery. The pressure oscillations were captured, amplified and converted by an analog/digital conversion board feeding signals to the data acquisition board. Through the card reader software, AcqKnowledge v.3.5.7 (Biopac System), PAP was continuously recorded with a sampling frequency of 2000-4000 Hz. Twenty-four hours after implantation of the cannulas was conducted, the first protocol, which consisted of acute intravenous administration of peptides was performed. For this, during the experiment, the arterial catheter was connected to the pressure transducer for the beginning of the record. After 90 minutes of cardiovascular parameters stabilization (baseline), the administration of the peptides […]-Ang-(1-7), Ang (1-7) or saline in a final volume of 300 uL was given in bolus. […] The Ang-(1-7) also was used to compare the effect induced by each peptide. Doses of 0.1 nmol/kg; 0.5 nmol/kg; 2.5 nmol/kg and 12.5 nmol/kg were administered to SHR (n=5-7 for each dose) while awake. […] After injection of the peptide or saline, cardiovascular parameters were continuously monitored for a period of 5 hours. The values of the MAP and HR were obtained every 10 minutes throughout the experimental period. Results are presented as mean±standard error of the mean. Two-way analysis of variance (ANOVA) with Bonferroni's multiple comparison post-test were used to compare the time-response curve obtained during the bolus administration in […]-Ang-(1-7) and Ang-(1-7). All statistical analyses were considered significant when p<0.05.

awake Wistar rats = assay: Acute IV bolus administration, MAP and HR in awake Wistar rats; type: in vivo, rat; conditions: IV bolus 0.5 nmol/kg
Protocol: Wistar and SHR rats were anesthetized with 2.5% tribromoethanol, intraperitoneally (1 mL/100 g). For femoral artery cannulation, cannulas made by connecting 15 cm polyethylene PESO to 4 cm of PE10 polyethylene were used, filled with saline solution (NaCl 0.9%) and heparin (100 IU/0.1 mL). After the animal was placed supine on the operating table, a trichotomy of the right inguinal region of the animal was performed. A small skin incision was made; the femoral neurovascular bundle was located and the femoral artery isolated. The cannula was introduced into the abdominal aorta through the femoral artery and was used for obtaining the cardiovascular parameters. […] The values of mean arterial pressure (MAP) and heart rate (HR) were calculated from PA pulses and recorded by the data acquisition system (BIOPAC System, Model MP150). The pulsatile arterial pressure (PAP) was recorded by a signal sent to a transducer connected to the cannula inserted into the abdominal aorta via the femoral artery. […] Through the card reader software, AcqKnowledge v.3.5.7 (Biopac System), PAP was continuously recorded with a sampling frequency of 2000-4000 Hz. […] After injection of the peptide or saline, cardiovascular parameters were continuously monitored for a period of 5 hours. […]

[1] = system: Human alveolar adenocarcinoma cells (A549); assay: Anti-proliferative effect in A549 cells (AlamarBlue cell viability); type: cell-based; conditions: 1×10^−4 to 2×10^−7M, 48 hours
Protocol: Human alveolar adenocarcinoma cells (A549), cultured in DEMEM supplemented with 10% fetal bovine serum and 1% penicillin/streptomycin, were distributed into 96 wells plate at the density of 2×10^4 cells/well. After 48 hours of incubation in an incubator at 37° C., the arg0-angiotensin-(1-7) and angiotensin (1-7) peptides were added to the wells and serially diluted (1×10^−4 to 2×10^−7M) in culture medium free of fetal bovine serum. Wells not plated with cells and wells with cells but stimulated only with culture medium were used as controls. The stimulus, which lasted 48 hours, was followed by the addition of AlamarBlue reagent (Invitrogen), used to detect cell viability.

[2] = system: thoracic aortic rings of spontaneously hypertensive rats (SHR); assay: Vasorelaxation in thoracic aortic rings of spontaneously hypertensive rats (SHR) pre-contracted with phenylephrine; set-up: species or system rat; conditions: percentage of decrease of phenylephrine contraction
Protocol: Three- to four-mm rings of the descending thoracic aorta, free from adipose and connective tissue, were maintained in a gasified solution (95% 02 and 5% CO2) of Krebs-Henseleit, at 37° C. under 1.0 g tension, 1 hour for stabilization. The presence of functional endothelium was assessed by the ability of acetylcholine [ACh] (10 μmol/L) to induce more than 70% relaxation of vessels pre-contracted with phenylephrine (Phe) ([…]). The mechanical activity, recorded isometrically by a force transducer, was fed into a recorder-amplifier and a computer equipped with an analog-digital converter board, using CVMS data acquisition/recording software.
The vessels from normotensive Wistar rats and spontaneously hypertensive rats (SHR) were pre-contracted in the same voltage level (approximately 1.0 g tension) at the submaximal concentration of phenylephrine ([…]). Arg0-Ang-(1-7) and Ang-(1-7) were added in increasing cumulative concentrations as the response to phenylephrine was stabilized. Results are presented as mean±SEM. One-way analysis of variance (ANOVA) with Newman-Keuls post test of multiple comparisons was used to compare the concentration response curves obtained in the aortic rings. The vasodilatation effect of arg0-Ang-(1-7) and Ang-(1-7) was expressed as the percentage of decrease in peak concentration induced by phenylephrine. […]

Asp-Arg-Val-Tyr-Ile-His-Pro [Ang-(1-7)]
effect on MAP (PAM) (conscious SHR; SHR, IV bolus 0.1 nmol/kg): did not significantly alter PAM | effect on MAP (conscious SHR; SHR, IV bolus 0.5 nmol/kg, vs saline group): no significant difference | change in heart rate (FC) (conscious SHR; SHR, IV bolus 12.5 nmol/kg, last 30 minutes of the experiment): significantly reduced the FC | time after administration at which anti-hypertensive effect was observed (conscious SHR; SHR, IV bolus 2.5 and 12.5 nmol/kg): 110 min | effect on MAP (conscious SHR; SHR, IV bolus 2.5 and 12.5 nmol/kg, vs saline group): significant anti-hypertensive effect | dose comparison of anti-hypertensive effect (conscious SHR; SHR, IV bolus 2.5 vs 12.5 nmol/kg): more potent at the dose of 2.5 nmol/kg | change in heart rate (CF) (conscious SHR; SHR, IV bolus, all doses except 12.5 nmol/kg Ang-(1-7)): no change was observed | change in MAP, time- and dose-dependent (conscious SHR; awake SHR, acute intravenous, different doses, vs saline group): significant reduction in MAP | change in HR (awake Wistar rats): failed to induce significant changes | change in MAP (awake Wistar rats): failed to induce significant changes | anti-proliferative effect [1]: anti-proliferative effect | Emax of vasorelaxation [2]: 30±3%
